Like-named read-outs stand apart in the source and are kept apart here.
Legend:
[1] = tested on: OVCAR-3 cells; experiment: SRB cell proliferation assay, OVCAR-3; assay type: cell-based, human; details: for IC50: Homo sapiens
Description: OVCAR-3 cells (ATCC No. HTB-161™) were cultured in RPMI-1640 medium containing HEPES buffer (2.383 g/L), sodium bicarbonate (1.5 g/L), sodium pyruvate (0.11 g/L) supplemented with 20% fetal bovine serum, 10 µg/mL bovine insulin, 100 U/mL penicillin, and 100 μg/mL streptomycin (all from Sigma Aldrich).
(§1) Betulin 1 and its derivatives were dissolved in dimethyl sulfoxide (DMSO; Sigma Aldrich) as a 15 mM stock solution. Working solutions were prepared through the dilution of stock solutions with culture medium. The final DMSO concentration in culture media was adjusted to 0.2%. The effect of tested compounds on the proliferation of SK-OV-3 and OVCAR-3 cells was measured using the In Vitro Toxicology Assay Kit, Sulforhodamine B based (Sigma Aldrich). Cells were seeded in 96-well plates (Greiner Bio-One, Kremsmünster, Austria) at an initial density of 3 × 10^3 cells per well in 200 µL of culture medium. After 24 h of incubation, betulin 1 and its derivatives at a concentration range of 0.1 μM to 30 μM were added to the wells. Control cultures were treated with vehicle alone (0.2% DMSO). The incubation periods for cells with test compounds were 1 day, 3 days, and 5 days. After appropriate incubation periods, culture media were removed, and cells were fixed in 10% trichloroacetic acid solution for 60 min at 4 °C. After fixation, the TCA solution was removed, and the plates were washed three times with deionized water (300 μL/well) and dried. At the next step, cells were stained with 0.4% sulforhodamine B for 30 min. The excess dye was removed by washing three times with 1% (vol/vol) acetic acid. The protein-bound dye was dissolved in 200 μL 10 mM Tris base solution. Absorbance was measured at 570 nm and 690 nm (reference wavelength) using the MRX Revelation plate reader (Dynex Technologies, Chantilly, VA, USA).
(§2) GraphPad Prism 10.0.2 (GraphPad Software Inc., San Diego, CA, USA) software was used for calculations and the statistical analysis of the IC50 values (Table 1). IC50 was determined by using the “nonlinear regression” mode, and the “log(inhibitor) vs. normalised response—Variable slope” equation was chosen in GraphPad Prism software for calculations. The obtained data were normalized to run from 100% down to 0%, and logarithms of concentration were used. Graphs (Figure 2, Figure 3, Figure 4, Figure 5 and Figure 8, and Supplementary Figure S1) were also prepared using this software. In the case of the lack of normal distribution or homogeneity of variances, the remaining results were analyzed using a non-parametric Kruskal–Wallis test with multiple comparisons. Post hoc analysis was performed with the non-parametric equivalent of Tukey’s test. A p value of <0.05 was considered statistically significant. Otherwise, a one-way ANOVA followed by a Tukey’s post hoc test was applied. t-tests was used to perform pairwise comparisons between group means. Analysis was performed using Statistica 13.1 software (StatSoft, Tulsa, OK, USA).

[2] = tested on: 18Co normal myofibroblasts; experiment: SRB cell proliferation assay, 18Co normal myofibroblasts; assay type: cell-based; details: 18Co, Neg: negative in the concentration used
Description: Next, 18Co cells (ATCC No. CRL-1459™) were cultured in MEM medium containing HEPES buffer, 10% fetal bovine serum, 100 U/mL penicillin, and 100 μg/mL streptomycin (all from Sigma Aldrich).
as §1, §2

[3] = tested on: OVCAR-3 cells; experiment: LDH release assay, OVCAR-3; assay type: cell-based, human; details: OVCAR-3, 24 h
Description: In order to evaluate the cytotoxic effect, the release of LDH into the culture medium using the In Vitro Toxicology Assay Kit, Lactic Dehydrogenase Based (TOX7; Sigma Aldrich) was assessed. SK-OV-3 and OVCAR-3 cells were plated and cultured in 96-well plates (Greiner Bio-One) at the initial density of 5 × 10^3 cells per well in 100 µL of culture medium. The density of the cells was determined in the same manner as in the SRB assay. After 24 h, the media were replaced with the working solutions, which contained appropriate test compounds at concentrations of 3 μM, 10 μM, 30 μM, and control medium (0.2% DMSO). Cells were exposed to the test substances for 24 h. The background control comprised wells without cells with only control medium. To determine the maximal LDH release (high control), half of the control cultures were treated with lysis buffer. Wells with untreated cells were used as the low control of the assay. LDH activity in media was assessed according to the manufacturer’s protocol. The absorbance was measured at wavelengths of 490 nm and 690 nm (background), and the percentage of released enzyme was calculated for cells growing in the presence of compounds according to the formula:Cytotoxicity [%] = [(AT − AL)/(AH − AL)] × 100 where AT is the absorbance of treated wells; AL is low control; and AH is high control (maximal LDH release).
Cytotoxicity was expressed as a percentage of the released LDH calculated according to the difference between the absorbance of the treated and low control wells divided by the difference between the absorbance of the high control and low control wells.

[4] = tested on: SK-OV-3 cells; experiment: DNA fragmentation assay (Cell Death Detection ELISA, cytoplasmic fraction), SK-OV-3; assay type: cell-based, human; details: for DNA fragmentation (enrichment factor, internucleosomal DNA fragments): SK-OV-3, 24 h, 3, 10, 30 µM
Description: (§3) Fragmentation of genomic DNA was determined by means of the Cell Death Detection ELISAPLUS kit (Roche, Basel, Switzerland). This method rests on the immunoenzymatic detection of DNA–histone complexes in the cytoplasmic cell fraction or cell culture supernatants. Cells were plated and cultured in 96-well plates (Greiner Bio-One) at the initial density of 5 × 10^3 cells per well in 100 µL of culture medium. Cells were allowed to attach and grow for 1 day prior to the addition of test reagents. Then, the media were replaced with the working solutions (3 µM, 10 µM, 30 µM), and cells were exposed to compounds 2–6 for 24 h. In some cases, 5 µM cyclosporin A (CsA, an inhibitor of the mitochondrial permeability transition) was added to the cells 30 min before treatment with the betulin derivative. Subsequently, cells were incubated concomitantly with both compounds. After a 24 h incubation period, plates were centrifuged (200× g; 10 min), media were removed, and cells were lysed for 30 min at room temperature. At the next step, the lysates were again spun (200× g; 10 min), and 20 µL of supernatants (cytoplasmic fractions) was moved to the new 96-well streptavidin-coated plate. In one experiment, the presence of mono- and oligonucleosomes was determined in 20 µL samples of centrifuged culture supernatants (media) to detect the permeability of plasma membrane (considered as an indicator of cell necrosis). Then, the sandwich ELISA assay was fulfilled according to the manufacturer’s protocol. Absorbance was measured at 405 nm and 490 nm (reference wavelength), and the enrichment factor of the cytoplasmic (or supernatant) fraction in mono- and oligonucleosomes was calculated according to the formula: EF = absorbance of sample cells/absorbance of control cells.
(§4) A high EF index in the cytoplasmic fraction (resulting from DNA fragmentation while maintaining the tightness of cell membranes) is a typical indicator of the relatively early stage of apoptosis.

[5] = tested on: OVCAR-3 cells; experiment: DNA fragmentation assay (Cell Death Detection ELISA, cytoplasmic fraction), OVCAR-3; assay type: cell-based, human; details: OVCAR-3, 24 h; for DNA fragmentation (number of mono- and oligonucleosomes): 3 µM and 10 µM
Description: as §3, §4

C#CC(=O)OC[C@]12CC[C@@H](/C(C)=C/P(=O)(OCC)OCC)C1C1CCC3[C@@]4(C)CC[C@H](O)C(C)(C)C4CC[C@@]3(C)[C@]1(C)CC2 (some centres unmarked) [Compound 6, E-29-diethoxyphosphoryl-28-O-propynoylbetulin]
IC50 ([1]; OVCAR-3, 72 h): 0.68 µM
IC50 ([1]; OVCAR-3, 120 h): 0.59 µM
concentration at which antiproliferative activity (decrease in the number of cells) was evident ([1]; OVCAR-3, SRB assay, 0.1–30 µM): 1 µM
IC50 ([2]; 3 days treatment): Neg
IC50 ([2]; 5 days treatment): Neg
cytotoxicity (released LDH) ([3]; all concentrations (3, 10, 30 μM)): significant cytotoxic activity
DNA fragmentation (enrichment factor, internucleosomal DNA fragments) [4]: moderate increases
effect of CsA on compound-induced cell death, DNA fragmentation ([4]; SK-OV-3, 24 h, with 5 µM cyclosporin A added 30 min before): almost completely prevented
DNA fragmentation (number of mono- and oligonucleosomes) [5]: slightly smaller effect than the lowest concentration of compound 4

C=C(C)[C@@H]1CC[C@]2(CO)CC[C@]3(C)[C@H](CC[C@@H]4[C@@]5(C)CC[C@H](O)C(C)(C)[C@@H]5CC[C@]43C)[C@@H]12 [Compound 1, lup-20(29)-ene-3β,28-diol, reference compound]
IC50 ([1]; 72 h, OVCAR-3, 3 days treatment, SRB assay, read-out: IC50): 9.03 µM
IC50 ([1]; 120 h, OVCAR-3, 5 days treatment, SRB assay, read-out: IC50): 10.1 µM
IC50 ([2]; 3 days treatment): Neg
IC50 ([2]; 5 days treatment): Neg
cytotoxicity (released LDH), loss of cell membrane integrity ([3]; 30 µM): loss of cell membrane integrity was also confirmed
DNA fragmentation (enrichment factor, internucleosomal DNA fragments) [4]: significant increase
DNA fragmentation (number of mono- and oligonucleosomes) [5]: comparable to the control
DNA fragmentation (enrichment factor) ([5]; 30 µM): caused an increase in DNA fragmentation
